According to patent publication US8404650B2, “Methods of treating cancer with doxazolidine and prodrugs thereof” (priority 2005, dated 2013):
Like-named read-outs stand apart in the source and are kept apart here.

Key:
[1] = tested on: SK-HEP-1; assay: Growth inhibition of SK-HEP-1 liver cancer cells; assay type: cell-based, human; conditions: for IC50: Homo sapiens, SK-HEP1
From the text: Cell growth inhibition experiments initially focused on MCF-7, MCF-7/Adr, SK-HEP-1, and Hep G2 cancer cells as well as rat cardiomyocytes as a measure of cardiotoxicity and Vero cells (green monkey kidney cells) as an additional measure of normal cell toxicity. […]

[2] = Functional measure of hydrolysis: pre-hydrolysis in RPMI medium or human serum, then growth of MCF-7/Adr cells; assay type: cell-based; conditions: read out by growth of MCF-7/Adr cells; for half-life at 10 µM: RPMI 1640 medium, RPMI 1640, 37° C., estimated from FIG. 5A, read-out: Half-life in cell culture media
Procedure: Hydrolysis of Doxaz or DoxF in RPMI medium was performed by dissociating the cells with trypsin/EDTA, counting and then suspending the cells in growth media to a concentration of 5×10^3 cells/mL. This cell suspension was dispensed in 200 μL aliquots (1000 cells/well) into the inside wells of 96-well tissue culture plates. Plates were then incubated for 24 h at 37° C. in a humidified atmosphere of 5% CO2, and 95% air. The medium was replaced with 180 μL of growth medium prior to addition of the drug. RPMI media (no serum added) was divided into 5 mL aliquots in conical vials and heated to 37° C. in a constant temperature bath. Doxaz and DoxF were dissolved in DMSO at a concentration of 1 mM equivalents. The concentration was then corrected by measuring the solution absorbance at 480 nm (ε=11,500 M^−1 cm^−1). Drug solution (50 μl) was added to an individual conical vial and the drug was allowed to hydrolyze (at 10 μM) for 0, 10, 20, 30, 45, 60, 75 or 90 min. Experiments were performed such that all hydrolysis times would end simultaneously. After hydrolysis, 20 μL of the drug solution was added to a lane of wells on the 96-well plate to give a final concentration of 1 μM equivalents (sum of Doxorubicin, Doxaz and/or DoxF) for treatment of cells. Additionally, two lanes were treated with 20 μL of growth medium containing 1% sterile DMSO for a control. The cells were incubated at 37° C. for 3 h, at which time the drug solutions were replaced with 200 μL of fresh growth media. The cells were then incubated for 5 days, and the extent of colony formation was determined using a crystal violet staining assay measuring optical density at 588 and 770 nm.
Hydrolysis of DoxF in RPMI medium or 100% human serum was performed as described above except drug hydrolysis was performed at 1 μM equivalents and drug treatment was at 100 nM equivalents. During drug treatment, the medium was either 90% RPMI/10% FBS or 90% RPMI/10% human serum. During cell growth, the medium was 90% RPMI/10% FBS. […]

[3] = tested on: cancer cells; conditions: background statement; cited from earlier work
[4] = tested on: SHP-77; assay: Growth inhibition of SHP-77 small cell lung cancer cells; assay type: cell-based; conditions: 24 h drug treatment, crystal violet
From the text: SHP-77 small cell lung cancer cells were also of interest because they express modest amounts of both enzymes. Inhibition of the growth of cardiomyocytes was used as a measure of cardiotoxicity, and inhibition of the growth of Vero cells, green monkey kidney cells, was again used as another measure of toxicity to normal cells.

[5] = target: human plasmin (Homo sapiens, UniProt P00747); assay: Plasmin activation of prodrug and release of Doxaz (HPLC); assay type: biochemical; conditions: human, human plasmin; 37° C.; read-out: Half-life in the presence of plasmin
Procedure: Both Formulas IV and V were incubated with 15 μg/ml human plasmin and monitored by HPLC at 37° C. Just 4 min after the addition of plasmin, 20 percent of compound 10 was converted to Doxaz and roughly 50% of that Doxaz had hydrolyzed to Doxorubicin. Within 23 minutes, nearly all of the prodrug was converted to Doxaz and subsequently hydrolyzed to Doxorubicin.

[6] = Water solubility; assay type: physicochemical; conditions: as di-cation
[7] = 3 h drug treatment, crystal violet, read-out: Growth inhibition IC50, SK-HEP-1, 3 h (converted)

human plasmin, sequence (P00747 581-810 limits assumed): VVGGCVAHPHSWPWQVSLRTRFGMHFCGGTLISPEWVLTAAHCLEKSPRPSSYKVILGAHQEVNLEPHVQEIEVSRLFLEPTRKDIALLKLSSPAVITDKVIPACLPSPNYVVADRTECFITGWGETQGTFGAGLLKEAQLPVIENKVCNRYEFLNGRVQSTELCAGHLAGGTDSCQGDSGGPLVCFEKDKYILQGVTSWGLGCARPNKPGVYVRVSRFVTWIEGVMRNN
human plasmin, sequence (P00747 97-580 partner limits assumed): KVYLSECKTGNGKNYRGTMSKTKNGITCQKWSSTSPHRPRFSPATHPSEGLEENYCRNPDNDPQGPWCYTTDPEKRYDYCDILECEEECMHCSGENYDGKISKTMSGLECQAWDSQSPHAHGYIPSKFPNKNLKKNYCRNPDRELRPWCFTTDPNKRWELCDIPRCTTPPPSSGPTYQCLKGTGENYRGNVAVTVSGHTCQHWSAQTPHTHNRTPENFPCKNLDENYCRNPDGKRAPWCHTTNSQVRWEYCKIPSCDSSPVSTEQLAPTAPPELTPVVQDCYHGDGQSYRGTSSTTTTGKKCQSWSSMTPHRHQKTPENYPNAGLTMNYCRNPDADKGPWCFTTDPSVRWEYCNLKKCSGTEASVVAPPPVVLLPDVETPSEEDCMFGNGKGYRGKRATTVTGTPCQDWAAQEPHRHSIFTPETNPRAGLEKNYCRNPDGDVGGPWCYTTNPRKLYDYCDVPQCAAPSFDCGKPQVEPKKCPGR

COc1cccc2c1C(=O)c1c(O)c3c(c(O)c1C2=O)C[C@@](O)(C(=O)CO)C[C@@H]3OC1CC2C(OCN2CN2COC3C(C)OC(O[C@H]4C[C@](O)(C(=O)CO)Cc5c(O)c6c(c(O)c54)C(=O)c4c(OC)cccc4C6=O)CC32)C(C)O1 (stereo partly shown) [DoxF, Doxoform, reference compound]
IC50 lower than doxorubicin, SK-HEP-1 [1]: more than 25 fold | half-life at 1 µM ([2]; 100% human serum, 100% pooled human serum, 37° C., start 100 nM equivalents, estimated from FIG. 5B): ~3 min | half-life at 10 µM [2]: ~1.5 min | Anti-tumor activity above Doxorubicin [3]: approximately 100 fold

COc1cccc2c1C(=O)c1c(O)c3c(c(O)c1C2=O)C[C@@](O)(C(=O)CO)C[C@@H]3O[C@H]1C[C@@H]2NCO[C@@H]2[C@H](C)O1 [Doxaz, Doxazolidine]
IC50 [1, 7]: 3.98 nM | half-life at 10 µM [2]: ~1 min

COc1cccc2c1C(=O)c1c(O)c3c(c(O)c1C2=O)C[C@@](O)(C(=O)CO)C[C@@H]3O[C@H]1C[C@H](N)[C@H](O)[C@H](C)O1 [Doxorubicin, reference compound]
IC50 [1, 7]: 100 nM | IC50 ([1]; 24 h drug treatment, crystal violet, read-out: Growth inhibition IC50, SK-HEP-1, 24 h (converted)): 50.1 nM | IC50 ([4]; Homo sapiens, SHP77): 126 nM

COc1cccc2c1C(=O)c1c(O)c3c(c(O)c1C2=O)C[C@@](O)(C(=O)CO)C[C@@H]3O[C@H]1C[C@H]2[C@H](OCN2C(=O)OCc2ccc(NC(=O)[C@H](CCCCN)NC(=O)[C@H](Cc3ccccc3)NC(=O)[C@@H](C)N)cc2)[C@H](C)O1 [Formula IV, D-Ala-L-Phe-L-Lys-p-aminobenzyloxycarbonyl-Doxaz]
half-life [5]: ~6 min | Water solubility [6]: excellent water solubility

CCCCCOC(=O)Nc1ccc(COC(=O)N2COC3C(C)OC(OC4CC(O)(C(=O)CO)Cc5c(O)c6c(c(O)c54)C(=O)c4c(OC)cccc4C6=O)CC32)cc1 (stereo not shown) [Pentyl PABC-Doxaz, Pentyl 4-(N-doxazolidinylcarbonyloxymethyl)phenylcarbamate]
Growth inhibition IC50, SK-HEP-1, 24 h ([1]; 24 h drug treatment, crystal violet): −6.0 ± 0.06 log of the molar concentration | Cell growth inhibition IC50, SHP-77 [4]: −7.3 ± 0.1 log of molar concentrations
